# Data: patent US20070270432A1, “Novel Method” (priority 2002, published 2007)
# Key:
# [1] = tested on: NCAM PSA-immunoreactive neurons, dentate granule cell layer/hilar border; assay: NCAM PSA expression in hippocampal dentate gyrus after chronic administration; format: in vivo, rat; conditions: for PSA immunopositive cell frequency: hippocampal dentate; for effect on frequency of polysialylated neurons in the subventricular zone of the rat hippocampal dentate gyrus: chronic administration, versus vehicle-treated control
# Procedure: (§1) Experimentally naïve postnatal day 80 (at the time of NCAM-PSA assessment) male Wistar rats were employed in all studies. All animals were housed singly and maintained at 22±2° C. on a standard 12 h-light/dark cycle with food and water available ad libitum. Animals were introduced to the experimental holding rooms at least 3 days prior to the commencement of any study.
# (§2) Freshly dissected whole rat brain was carefully coated in optimum cutting temperature (OCT) compound and lowered into a Cryoprep freezing apparatus containing dry-ice-cooled n-hexane. The function of the OCT compound and n-hexane was to provide an even freezing of the tissue, thus avoiding freezing artefacts. Horizontal sections for all studies were cut semi-automatically or automatically on a Microm Series 500 cryostat. Fresh, frozen brain sections (12 μm) were cut at −15° C., while cryoprotected. All sections were prepared on the day of the experiment and were not pre-cut and stored frozen.
# (§3) Horizontal cryosections were cut from the frozen tissue at various levels with reference to Bregma (see above), these were thaw-mounted onto glass slides, which were coated with poly-1-lysine diluted 1:1 in dH2O, and immersion fixed for 30 minutes with 70% ethanol. The sections were then washed twice for 10 minutes each in 0.1M phosphate buffered saline (PBS) and incubated for 20 hours in a humidified chamber at room temperature with the primary antibody diluted 1:500 in PBS containing 1% bovin serum albumin (w/v) and 1% normal goat serum (v/v) to reduce non-specific staining. The humidified chamber prevented the sections from evaporating. The primary antibody was a monoclonal raised against PSA, which was provided by Professor G, Rougon (CNRS UMR 6545, 13288 Marseille, France). On completion of the primary antibody incubation, the sections were washed twice for ten minutes each in PBS and incubated at room temperature for 3 hours in the humidified chamber with the secondary antibody, at a dilution factor of 1:100, again in PBS containing 1% BSA and 1% NGS. The secondary antibody was a goat anti-mouse IgM conjugated to fluorescein (FITC). Following the second incubation, the sections ware again washed twice for ten minutes each in PBS, mounted in the fluorescence enhancing medium Citifluor® and observed for fluorescence with a Leitz DM RB fluorescent microscope.
# (§4) Quantitative image analysis was performed using the Leica Quantimet 500®, a P.C.-based software package, which was connected to the fluorescence microscope with a high sensitivity CCD video camera. Each microscope lens was calibrated for length and area measurements using a 1 mm graticule. The total number of NCAM PSA-immunoreactive neurons on the right dentate granule cell layer/hilar border were counted in 7 alternate 12 μm sections commencing −5.6 mm from Bregma (Paxinos and Watson, 1986), to preclude double counting of the 5-10 μm perikarya. Cell identification was aided by the use of the nuclear counter-stain propidium iodide (40 ng/ml PBS; 60 sec). The number of cells was then divided by the total area of the dentate granule cell layer and multiplied by the average granule cell layer area for a p80 rat, which is 0.15±0.01 mm^2 at this level. This was done for each section and a mean±SEM was calculated for each brain with the results expressed as PSA-positive cells per unit area. […] Cell identification was again aided by the use of the nuclear counter-stain propidium iodide (40 ng/ml PBS; 60 sec) with the use of alternate sections eliminating the possibility of double counting. Cell counts were divided by the length of the cortex and multiplied by the average length of the cortex, which was taken to be 10 mm. This was completed for each section and a mean±SEM was calculated for each brain with the results expressed as PSA-positive cells per unit length.
# NCAM PSA-positive cell numbers were obtained from each animal group.
# hippocampal neurogenesis = conditions: literature; antidepressants given chronically; cited from earlier work
# [2] = tested on: BrdU-immunopositive cells in the hippocampal dentate granule cell layer; assay: BrdU expression in hippocampal dentate granule cell layer (neurogenesis); format: in vivo, rat; conditions: for BrdU-immunopositive cell number/granule cell layer: 20 mg/kg, 40 days by gavage, BrdU 100 mg/kg i.p. last eight days; for effect on expression of BrdU-immunopositive cells / neurogenic rate: chronic 20 mg/kg, versus vehicle-treated controls
# Procedure: as §1
# [3] = tested on: NCAM PSA-immunoreactive neurons, dentate granule cell layer/hilar border; assay: NCAM PSA expression in hippocampal dentate gyrus with water maze training; format: in vivo, rat; conditions: for effect on frequency of polysialylated neurons at 12 h following water maze training: versus untrained drug-treated and trained drug-naive animals
# Procedure: as §1, §2, §3, §4
# In this protocol animals were introduced to the training environment 5 days prior to training, and individually housed according to standard conditions. […]
# [4] = tested on: polysialylated neurons in layer II of the entorhinal and perirhinal cortex; assay: NCAM PSA expression in medial temporal lobe after chronic administration; format: in vivo, rat; conditions: 20 mg/kg; for PSA immunopositive cell frequency: medial temporal lobe, 40 days by gavage
# Procedure: Experimentally naïve postnatal day 80 (at the time of NCAM-PSA assessment) male Wistar rats were employed in all studies. All animals were housed singly and maintained at 22±2° C. on a standard 12 h-light/dark cycle with food and water available ad libitum. Animals were introduced to the experimental holding rooms at least 3 days prior to the commencement of any study. The frequency of polysialylated neurons in the rat medial temporal lobe was also examined following chronic exposure to 5-HT6 antagonist. […] Horizontal cryosections were cut from the frozen tissue at various levels with reference to Bregma (see above), these were thaw-mounted onto glass slides, which were coated with poly-[…] diluted 1:1 in dH2O, and immersion fixed for 30 minutes with 70% ethanol. The sections were then washed twice for 10 minutes each in 0.1M phosphate buffered saline (PBS) and incubated for 20 hours in a humidified chamber at room temperature with the primary antibody diluted 1:500 in PBS containing 1% bovin serum albumin (w/v) and 1% normal goat serum (v/v) to reduce non-specific staining. The humidified chamber prevented the sections from evaporating. The primary antibody was a monoclonal raised against PSA, which was provided by Professor G, Rougon (CNRS UMR 6545, 13288 Marseille, France). On completion of the primary antibody incubation, the sections were washed twice for ten minutes each in PBS and incubated at room temperature for 3 hours in the humidified chamber with the secondary antibody, at a dilution factor of 1:100, again in PBS containing 1% BSA and 1% NGS. The secondary antibody was a goat anti-mouse IgM conjugated to fluorescein (FITC). Following the second incubation, the sections ware again washed twice for ten minutes each in PBS, mounted in the fluorescence enhancing medium Citifluor® and observed for fluorescence with a Leitz DM RB fluorescent microscope. Quantitative image analysis was performed using the Leica Quantimet 500®, a P.C.-based software package, which was connected to the fluorescence microscope with a high sensitivity CCD video camera. Each microscope lens was calibrated for length and area measurements using a 1 mm graticule. […] Cell identification was aided by the use of the nuclear counter-stain propidium iodide (40 ng/ml PBS; 60 sec). […] This was done for each section and a mean±SEM was calculated for each brain with the results expressed as PSA-positive cells per unit area. […] Cell identification was again aided by the use of the nuclear counter-stain propidium iodide (40 ng/ml PBS; 60 sec) with the use of alternate sections eliminating the possibility of double counting. Cell counts were divided by the length of the cortex and multiplied by the average length of the cortex, which was taken to be 10 mm. This was completed for each section and a mean±SEM was calculated for each brain with the results expressed as PSA-positive cells per unit length. […] NCAM PSA-positive cell numbers were obtained from each animal group. Results were expressed as mean±SEM with at least 3-6 values per group and analysed by ANOVA or unpaired non-parametric, Student's t-test, as indicated. […] Drug administration ceased 24 h prior to animal sacrifice. Animal weight gain and general physical condition was monitored daily. Methylcellulose (1% w/v) treated controls and use of the antipyschotic clozapine were employed for comparison.
# rat 5-HT6 receptors = rat 5-HT6 receptors (Rattus norvegicus, UniProt P31388); conditions: cited from earlier work
# [5] = in vivo; cited from earlier work
# seizure threshold = conditions: rat MEST test, dose range 0.1-30 mg/kg; cited from earlier work
# [6] = tested on: retention of a spacial memory task; conditions: rat, 10 mg/kg p.o.; cited from earlier work
# [7] = Example 3, 20 mg/kg, 40 days by gavage
# Chain of rat 5-HT6 receptors (P31388 whole entry): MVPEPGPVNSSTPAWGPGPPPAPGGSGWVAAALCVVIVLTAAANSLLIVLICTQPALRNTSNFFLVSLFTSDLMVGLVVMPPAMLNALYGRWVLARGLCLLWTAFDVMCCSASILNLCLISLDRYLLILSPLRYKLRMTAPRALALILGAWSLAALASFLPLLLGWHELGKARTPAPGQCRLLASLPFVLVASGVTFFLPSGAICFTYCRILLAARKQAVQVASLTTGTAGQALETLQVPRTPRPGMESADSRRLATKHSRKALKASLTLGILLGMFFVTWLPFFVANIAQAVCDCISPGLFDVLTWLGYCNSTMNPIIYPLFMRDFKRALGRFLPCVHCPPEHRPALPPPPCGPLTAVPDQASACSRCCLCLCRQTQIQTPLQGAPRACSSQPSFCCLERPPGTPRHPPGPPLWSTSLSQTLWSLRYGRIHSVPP
compound,measurement,setting,value
"CN1CCN(C2=Nc3cc(Cl)ccc3Nc3ccccc32)CC1 [clozapine, reference compound]",PSA immunopositive cell frequency,"[1]; Example 1, 5 mg/kg, chronic comparison group",69.8 ± 1.6 PSA-positive cells per unit area
CNCCC(Oc1ccc(C(F)(F)F)cc1)c1ccccc1 (stereo not shown) [fluoxetine],effect on hippocampal neurogenesis,hippocampal neurogenesis,stimulate hippocampal neurogenesis
CCOc1ccccc1OC(c1ccccc1)C1CNCCO1 (stereo not shown) [reboxetine],effect on hippocampal neurogenesis,hippocampal neurogenesis,stimulate hippocampal neurogenesis
CCOC(=O)[C@H](N)/C=C(\C)CP(=O)(O)O [CGP43487],effect on hippocampal neurogenesis,hippocampal neurogenesis,reduce the rate of hippocampal neurogenesis
N[C@@H]1C[C@H]1c1ccccc1 (racemic) [tranylcypromine],effect on hippocampal neurogenesis,hippocampal neurogenesis,stimulate hippocampal neurogenesis
NCCc1c[nH]c2ccc(O)cc12 [Serotonin],effect on hippocampal neurogenesis,hippocampal neurogenesis,stimulate hippocampal neurogenesis
"COc1ccc(S(=O)(=O)Nc2cc(Cl)cc(Cl)c2OC)cc1N1CCNCC1.Cl [SB399885, N-(3,5-dichloro-2-methoxy-phenyl)-4-methoxy-3-piperazin-1-yl-benzenesulfonamide hydrochloride]",BrdU-immunopositive cell number/granule cell layer,[2],2296.7 ± 49.1
same,effect on expression of BrdU-immunopositive cells / neurogenic rate,[2],without altering neurogenic rate
same,PSA immunopositive cell frequency,"[3]; Example 4, chronic 20 mg/kg, 40 days by gavage, 12 h post water maze training",125.9 ± 4.7 PSA-positive cells per unit area
same,PSA immunopositive cell frequency,"[3]; Example 4, chronic 20 mg/kg, 40 days by gavage, untrained",104.2 ± 4.4 PSA-positive cells per unit area
same,increase in frequency of hippocampal polysialylated neurons 12 h following water maze training compared with SB271046 of Example 2,"[3]; chronic 20 mg/kg, Student's t-test P=0.0337",significantly greater
same,effect on frequency of polysialylated neurons at 12 h following water maze training,[3]; chronic 20 mg/kg,significantly increase
same,PSA immunopositive cell frequency,"[1]; Example 3, 3 mg/kg, 40 days by gavage",81.4 ± 5.3 PSA-positive cells per unit area
same,PSA immunopositive cell frequency,"[1]; Example 3, 10 mg/kg, 40 days by gavage",87.4 ± 5.4 PSA-positive cells per unit area
same,PSA immunopositive cell frequency,[1]; [7],104.2 ± 4.4 PSA-positive cells per unit area
same,effect on frequency of polysialylated neurons in the subventricular zone of the rat hippocampal dentate gyrus,[1],significantly increase
same,dose dependent increase in basal frequency of hippocampal polysialylated neurons compared with SB271046 of Example 1,"[1]; chronic treatment, analysis of variance F[1,21]=5.882, P=0.0244",significantly greater
CN1CC[C@]23c4c5ccc(O)c4O[C@H]2[C@@H](O)C=C[C@H]3[C@H]1C5 [morphine],effect on hippocampal neurogenesis,hippocampal neurogenesis,reduce the rate of hippocampal neurogenesis
"COc1ccc(NS(=O)(=O)c2sc3ccc(Cl)cc3c2C)cc1N1CCNCC1.Cl [SB271046, 5-Chloro-3-methylbenzo[b]thiophene-2-sulfonic acid (4-methoxy-3-piperazin-1-ylphenyl)amide hydrochloride]",effect on frequency of polysialylated neurons in the rat medial temporal lobe,[4]; chronic exposure,increased
same,PSA immunopositive cell frequency,[4]; Bregma level -7.1 mm,61.7 ± 1.7 PSA-positive cells per unit length
same,PSA immunopositive cell frequency,[4]; Bregma level -7.6 mm,69.9 ± 0.9 PSA-positive cells per unit length
same,PSA immunopositive cell frequency,[4]; Bregma level -8.1 mm,125.4 ± 3.5 PSA-positive cells per unit length
same,PSA immunopositive cell frequency,[4]; Bregma level -8.6 mm,178.3 ± 12.2 PSA-positive cells per unit length
same,BrdU-immunopositive cell number/granule cell layer,[2],2332 ± 136.5
same,effect on expression of BrdU-immunopositive cells / neurogenic rate,[2],without altering neurogenic rate
same,pKi,rat 5-HT6 receptors,9.0
same,PSA immunopositive cell frequency,"[3]; Example 2, acute 20 mg/kg by gavage 30 min before water maze training, 12 h post-training",96.0 ± 5.5 PSA-positive cells per unit area
same,PSA immunopositive cell frequency,"[3]; Example 2, acute 20 mg/kg by gavage, untrained",64.2 ± 4.3 PSA-positive cells per unit area
same,PSA immunopositive cell frequency,"[3]; Example 2, chronic 20 mg/kg, 40 days by gavage, 12 h post water maze training",109.8 ± 1.8 PSA-positive cells per unit area
same,PSA immunopositive cell frequency,"[3]; Example 2, chronic 20 mg/kg, 40 days by gavage, untrained",85.8 ± 1.3 PSA-positive cells per unit area
same,effect on frequency of polysialylated neurons at 12 h following water maze training,[3]; acute 20 mg/kg,significantly increase
same,PSA immunopositive cell frequency,"[1]; Example 1, 3 mg/kg, 40 days by gavage",70.3 ± 3.9 PSA-positive cells per unit area
same,PSA immunopositive cell frequency,"[1]; Example 1, 10 mg/kg, 40 days by gavage",82.4 ± 1.7 PSA-positive cells per unit area
same,PSA immunopositive cell frequency,"[1]; Example 1, 20 mg/kg, 40 days by gavage",85.8 ± 8.4 PSA-positive cells per unit area
same,PSA immunopositive cell frequency,[1]; [7],78.3 ± 3.4 PSA-positive cells per unit area
same,frequency of polysialylated neurons in repeat group compared with Example 1,"[1]; Example 3 repeat, 20 mg/kg chronic",no difference
same,effect on frequency of polysialylated neurons in the subventricular zone of the rat hippocampal dentate gyrus,[1],significantly increase
same,oral bioavailability,[5],orally bioavailable
same,seizure threshold,seizure threshold,increases seizure threshold
same,retention of a spacial memory task,[6],significant improvements
